Values joined by “and” are separate entries in the source; they are usually repeats but may differ in a detail not shown here. Equal values may be shown once. Read-outs that look alike come from different tables or passages of the source.
What was measured:
HBL-100 = experiment: MTT cell viability assay, HBL-100; type: cell-based, human; details: for IC50: Homo sapiens
Protocol: The cells were cultured in a humidified CO2 incubator (model 460-CE; Thermo Fisher Scientific, Waltham, MA, USA) at +37 °C and 5% CO2.
The percentage of the viable cells was calculated according to the following equation: cell viability (%) = 100 × (mean absorbance in the treatment group/mean absorbance in the control group). The results were expressed pictorially using Prism 6.0 (GraphPad Software, Boston, MA, USA).

HBL-100/Dox cells [1] = experiment: Western blotting of cytochrome c, cleaved caspase-9 and -8, HBL-100/Dox; type: cell-based, human; details: 16 h, IC50
Protocol: The supernatant (cytosol fraction) and mitochondrial pellets were then collected, and protein concentration was determined by UV […] using 1–100 μg/mL BSA as standard curve concentrations (UV-2600i spectrophotometer; Shimadzu, Tokyo, Japan).
Then, the same protein amounts (20.0 µg in each lane) were loaded and separated by 4–20% Mini-PROTEAN TGX Stain-Free Protein Gels (Bio-Rad Laboratories, Hercules, CA, USA), followed by transferring onto polyvinylidene difluoride (PVDF) membranes. The membranes were blocked with 1% (w/v) casein in Tris-buffered saline containing 0.1% Tween-20 (TBS-T), and were incubated overnight with primary antibodies (1:1000) of Cytochrome c (D18C7) Rabbit mAb, Cleaved Caspase-9 (Asp330) (E5Z7N) Rabbit mAb, Cleaved Caspase-8 (Asp374) (18C8) Rabbit mAb, and β-Actin (D6A8) Rabbit mAb (Cell Signaling Technology, Danvers, MA, USA) for cytosol and mitohondrial fractions at 4 °C. The next day, the PVDF membranes were washed thrice in TBS-T and incubated with HRP-conjugated secondary antibodies (1:1000) (Cell Signaling Technology, Danvers, MA, USA) for 1 h at RT. Immunoreactive proteins were detected by Clarity Western ECL Substrate (Bio-Rad Laboratories, Hercules, CA, USA) and then analyzed on the ChemiDoc MP Imaging system (Bio-Rad Laboratories, Hercules, CA, USA). The proteins were quantified by densitometry using Image Lab software (version 6.0; Bio-Rad Laboratories, Hercules, CA, USA). To normalize protein expression data, a blot with β-Actin was used.

HBL-100/Dox cells [2] = experiment: Cell cycle analysis (DAPI, flow cytometry), HBL-100/Dox; type: cell-based, human; details: for Cell cycle of HBL-100/Dox, G0/G1 / Cell cycle of HBL-100/Dox, G2/M / Cell cycle of HBL-100/Dox, subG0/G1 / Cell cycle of HBL-100/Dox, S-phase: dose = IC50
Protocol: The cells were trypsinized and rinsed with the growth medium. Then, the cells were harvested by centrifugation at 500× g for 3 min, and the supernatant was discarded. The cells were washed with PBS (PanEco, Moscow, Russia) twice and centrifuged under similar conditions. The cells were resuspended in 500 μL of PBS, put into centrifuge tubes and fixed by adding 4.5 mL of 70% ethanol dropwise (on ice). The samples were fixed at 4 °C. Overnight, the fixed cells were centrifugally collected (1000× g, 4 °C, 5 min) and washed again with PBS. The cells were finally resuspended in DAPI with 0.1% Triton X-100 in PBS solution (10 μg/mL, Sigma–Aldrich, St. Louis, MO, USA), and stained for 30 min at room temperature in darkness. For each sample, at least 50,000 cells were analyzed using the CytoFlex S flow cytometer (Beckman Coulter, Brea, CA, USA). Cell cycle populations were quantified from DNA histograms with the FlowJo software (ver. X 10.0.7r2, FlowJo Software, San Jose, CA, USA).

HBL-100 cells = experiment: Annexin V-FITC/PI assay, HBL-100; type: cell-based, human; details: 16 h
Protocol: Briefly, after exposing the cells to the tested and control compounds for 16 h, the cells were detached with accutase (HiMedia Laboratories, Maharashtra, India) and washed with cold PBS. Then, the cells were re-suspended in 100 μL of 1 × Binding Buffer at concentration 1 × 10^6 cells/mL and incubated with 5 μL Annexin V-FITC and 5 μL propidium iodide (PI) for 15 min at room temperature in darkness. After incubation, 400 μL of 1 × Binding Buffer was added to each tube. The samples were analyzed by flow cytometry (CytoFlex S, Beckman Coulter, Brea, CA, USA) within 1 h of staining, and the findings were analyzed using a trial version of the Kaluza software (Beckman Coulter, Brea, CA, USA).

HEK293 = experiment: MTT cell viability assay, HEK293; type: cell-based; details: Homo sapiens
From the text: Blokhin National Medical Research Center of Oncology (the Ministry of Health of the Russian Federation, Moscow).

## COC(=O)[C@]12CC[C@@H](C(C)C)[C@@H]1[C@H]1CC[C@@H]3[C@@](C)(CCC#N)[C@H](C(=O)C(Br)Br)CC[C@@]3(C)[C@]1(C)CC2 [compound 31, 2-Cyano-24,24-dibromo-4-oxo-3,4-seco-3,23-dinorlupan-28-oic acid methyl ester]
HBL-100; HBL-100, MK at IC50 dose, after 72 h exposure
  death of the cells: 50%
HBL-100; HBL-100, MTT, 72 h of treatment, read-out: IC50 Values (Mean ± SD)
  IC50: 1000 ± 100 nM
HBL-100; Table S1, HBL-100, read-out: IC50 (mean ± SD)
  IC50: 990 ± 1 nM
HBL-100; ratio of IC50 values healthy (HEK293) / HBL-100
  Selectivity index (SI): 11.50
HBL-100/Dox cells [1]
  activation of caspase-8: not observed
  activation of caspase-9: sequential activation of initiator caspase-9
  cytochrome c release: provoked the release of cytochrome c from mitochondria to cytosol
HBL-100/Dox cells [2]; 12 h
  Cell cycle of HBL-100/Dox, G0/G1: 50.93±0.43%
  Cell cycle of HBL-100/Dox, G2/M: 18.38±0.34%
  Cell cycle of HBL-100/Dox, subG0/G1: 4.84 ± 1.48%
HBL-100/Dox cells [2]; 12 h, listed as MK
  Cell cycle of HBL-100/Dox, S-phase: 30.69 ± 0.99% and 30.69±0.04%
HBL-100/Dox cells [2]; 13 h
  Cell cycle of HBL-100/Dox, G0/G1: 47.82±0.67%
  Cell cycle of HBL-100/Dox, G2/M: 17.42±0.46%
  Cell cycle of HBL-100/Dox, S-phase: 34.76±0.20%
  Cell cycle of HBL-100/Dox, subG0/G1: 4.89±0.48%
HBL-100/Dox cells [2]; 14 h
  Cell cycle of HBL-100/Dox, G0/G1: 51.68±1.34%
  Cell cycle of HBL-100/Dox, G2/M: 14.54±0.25%
  Cell cycle of HBL-100/Dox, S-phase: 33.78±1.08%
  Cell cycle of HBL-100/Dox, subG0/G1: 4.87±0.60%
HBL-100/Dox cells [2]; 15 h
  Cell cycle of HBL-100/Dox, G0/G1: 52.12±1.18%
  Cell cycle of HBL-100/Dox, G2/M: 14.52±1.40%
  Cell cycle of HBL-100/Dox, S-phase: 33.36±2.57%
  Cell cycle of HBL-100/Dox, subG0/G1: 5.06±0.09%
HBL-100/Dox cells [2]; 16 h
  Cell cycle of HBL-100/Dox, G0/G1: 51.84±0.88%
  Cell cycle of HBL-100/Dox, G2/M: 22.22±1.70%
  Cell cycle of HBL-100/Dox, S-phase: 25.94±2.58%
  Cell cycle of HBL-100/Dox, subG0/G1: 6.55±0.11%
HBL-100/Dox cells [2]; 17 h
  Cell cycle of HBL-100/Dox, G0/G1: 52.16 ± 1.94%
  Cell cycle of HBL-100/Dox, G2/M: 19.82±0.60%
  Cell cycle of HBL-100/Dox, S-phase: 28.02±1.34%
  Cell cycle of HBL-100/Dox, subG0/G1: 9.08±0.39%
HBL-100/Dox cells [2]; 18 h
  Cell cycle of HBL-100/Dox, G0/G1: 57.26±1.18%
  Cell cycle of HBL-100/Dox, G2/M: 25.55±1.12%
  Cell cycle of HBL-100/Dox, S-phase: 17.19±2.31%
  Cell cycle of HBL-100/Dox, subG0/G1: 10.42±0.98%
HBL-100/Dox cells [2]; 24 h
  Cell cycle of HBL-100/Dox, G0/G1: 64.14 ± 0.55%
  Cell cycle of HBL-100/Dox, S-phase: 8.99 ± 0.42%
HBL-100/Dox cells [2]; 24 h, listed as MK
  Cell cycle of HBL-100/Dox, G2/M: 26.87 ± 1.13% and 26.87±0.13%
  Cell cycle of HBL-100/Dox, subG0/G1: 13.47 ± 2.44% and 13.47±0.18%
HBL-100/Dox cells [2]; HBL-100/Dox (resistant) cells, 12-24 h, IC50
  effect on cell cycle progression: blocked or slowed down the cell cycle progression through the G0/G1 phase
HBL-100 cells; dose 2xIC50
  Dead cells: 5.59±0.46%
  Late apoptotic cells: 10.37 ± 1.01%
  Viable cells: 76.73 ± 1.18%
HBL-100 cells; dose 2xIC50, listed as MK
  Early apoptotic cells: 7.29 ± 0.28% and 7.29±0.29%
HBL-100 cells; dose IC50
  Dead cells: 2.69±0.13%
  Late apoptotic cells: 3.59 ± 0.82%
HBL-100 cells; dose IC50, listed as MK
  Early apoptotic cells: 4.43±0.49%
  Viable cells: 89.57 ± 0.93% and 89.58±0.94%
HEK293; HEK293, MTT, 72 h of treatment, read-out: IC50 Values (Mean ± SD)
  IC50: 11.5 ± 0.6 µM
HEK293; Table S1, HEK293, read-out: IC50 (mean ± SD)
  IC50: 11.5 ± 0.56 µM

— publication PMC10298530, “Synthesis and Anticancer Activity of A-Ring-Modified Derivatives of Dihydrobetulin” (International Journal of Molecular Sciences, 2023)
